Measurements published in the NIST ThermoML archive (doi:10.1021/acs.jced.5b00242).
Numbers after ± are expanded uncertainties.

Assays:
[1] = xn = mol fraction of the nth substance listed; conditions: 101 kPa, Liquid, x1 = 1; for mass density: Vibrating tube method
[2] = refractive index (Na D-line) (dimensionless); xn = mol fraction of the nth substance listed; conditions: 101 kPa, Liquid, Standard Abbe refractometry, x1 = 1

| Compound | mass density ([1]; 293.15 K) [kg/m3] | mass density ([1]; 298.15 K) [kg/m3] | mass density ([1]; 303.15 K) [kg/m3] | mass density ([1]; 308.15 K) [kg/m3] | mass density ([1]; 313.15 K) [kg/m3] | mass density ([1]; 318.15 K) [kg/m3] | mass density ([1]; 323.15 K) [kg/m3] | mass density ([1]; 328.15 K) [kg/m3] | mass density ([1]; 333.15 K) [kg/m3] | mass density ([1]; 338.15 K) [kg/m3] | mass density ([1]; 343.15 K) [kg/m3] | mass density ([1]; 348.15 K) [kg/m3] | mass density ([1]; 353.15 K) [kg/m3] | refractive index ([2]; 293.15 K) | refractive index ([2]; 298.15 K) | refractive index ([2]; 303.15 K) | refractive index ([2]; 308.15 K) | refractive index ([2]; 313.15 K) | refractive index ([2]; 318.15 K) | refractive index ([2]; 323.15 K) | further results |
| --- | --- | --- | --- | --- | --- | --- | --- | --- | --- | --- | --- | --- | --- | --- | --- | --- | --- | --- | --- | --- | --- |
| CCn1cc[n+](C)c1.N#C[C-](C#N)C#N [1-ethyl-3-methyl-1H-imidazolium tricyanomethanide] + CCn1cc[n+](C)c1.C[C@H](N)C(=O)[O-] | 1084.6 ± 15 | 1081 ± 15 | 1077.5 ± 15 | 1073.9 ± 15 | 1070.4 ± 15 | 1067.1 ± 15 | 1063.7 ± 15 | 1060.3 ± 15 | 1056.9 ± 15 | 1053.6 ± 15 | 1050.2 ± 15 | 1046.8 ± 15 | 1043.4 ± 15 | 1.51454 ± 0.00063 | 1.51286 ± 0.00063 | 1.51114 ± 0.00063 | 1.50938 ± 0.00063 | 1.50765 ± 0.00063 | 1.50595 ± 0.00063 | 1.50419 ± 0.00063 | viscosity ([1]; 293.15 K, Stabinger Viscometer): 16.62 ± 0.7 mPa·s; viscosity ([1]; 298.15 K, Stabinger Viscometer): 14.19 ± 0.6 mPa·s; viscosity ([1]; 303.15 K, Stabinger Viscometer): 12.18 ± 0.51 mPa·s; viscosity ([1]; 308.15 K, Stabinger Viscometer): 10.58 ± 0.44 mPa·s; viscosity ([1]; 313.15 K, Stabinger Viscometer): 9.02 ± 0.38 mPa·s; viscosity ([1]; 318.15 K, Stabinger Viscometer): 8.2 ± 0.34 mPa·s; viscosity ([1]; 323.15 K, Stabinger Viscometer): 7.31 ± 0.31 mPa·s; viscosity ([1]; 328.15 K, Stabinger Viscometer): 6.56 ± 0.28 mPa·s; viscosity ([1]; 333.15 K, Stabinger Viscometer): 5.72 ± 0.24 mPa·s; viscosity ([1]; 338.15 K, Stabinger Viscometer): 5.38 ± 0.23 mPa·s; viscosity ([1]; 343.15 K, Stabinger Viscometer): 4.91 ± 0.21 mPa·s; viscosity ([1]; 348.15 K, Stabinger Viscometer): 4.5 ± 0.19 mPa·s; viscosity ([1]; 353.15 K, Stabinger Viscometer): 3.98 ± 0.17 mPa·s; refractive index ([2]; 328.15 K): 1.50255 ± 0.00063; refractive index ([2]; 333.15 K): 1.50087 ± 0.00063; refractive index ([2]; 338.15 K): 1.49921 ± 0.00063; refractive index ([2]; 343.15 K): 1.49757 ± 0.00063; refractive index ([2]; 348.15 K): 1.49593 ± 0.00063; refractive index ([2]; 353.15 K): 1.49429 ± 0.00063 |
| CCn1cc[n+](C)c1.N#C[C-](C#N)C#N [1-ethyl-3-methyl-1H-imidazolium tricyanomethanide] + CCn1cc[n+](C)c1.NCCS(=O)(=O)[O-] | 1084.6 ± 15 | 1081 ± 15 | 1077.5 ± 15 | 1073.9 ± 15 | 1070.4 ± 15 | 1067.1 ± 15 | 1063.7 ± 15 | 1060.3 ± 15 | 1056.9 ± 15 | 1053.6 ± 15 | 1050.2 ± 15 | 1046.8 ± 15 | 1043.4 ± 15 | 1.51454 ± 0.00063 | 1.51286 ± 0.00063 | 1.51114 ± 0.00063 | 1.50938 ± 0.00063 | 1.50765 ± 0.00063 | 1.50595 ± 0.00063 | 1.50419 ± 0.00063 | viscosity ([1]; 293.15 K, Stabinger Viscometer): 16.62 ± 0.7 mPa·s; viscosity ([1]; 298.15 K, Stabinger Viscometer): 14.19 ± 0.6 mPa·s; viscosity ([1]; 303.15 K, Stabinger Viscometer): 12.18 ± 0.51 mPa·s; viscosity ([1]; 308.15 K, Stabinger Viscometer): 10.58 ± 0.44 mPa·s; viscosity ([1]; 313.15 K, Stabinger Viscometer): 9.02 ± 0.38 mPa·s; viscosity ([1]; 318.15 K, Stabinger Viscometer): 8.2 ± 0.34 mPa·s; viscosity ([1]; 323.15 K, Stabinger Viscometer): 7.31 ± 0.31 mPa·s; viscosity ([1]; 328.15 K, Stabinger Viscometer): 6.56 ± 0.28 mPa·s; viscosity ([1]; 333.15 K, Stabinger Viscometer): 5.72 ± 0.24 mPa·s; viscosity ([1]; 338.15 K, Stabinger Viscometer): 5.38 ± 0.23 mPa·s; viscosity ([1]; 343.15 K, Stabinger Viscometer): 4.91 ± 0.21 mPa·s; viscosity ([1]; 348.15 K, Stabinger Viscometer): 4.5 ± 0.19 mPa·s; viscosity ([1]; 353.15 K, Stabinger Viscometer): 3.98 ± 0.17 mPa·s; refractive index ([2]; 328.15 K): 1.50255 ± 0.00063; refractive index ([2]; 333.15 K): 1.50087 ± 0.00063; refractive index ([2]; 338.15 K): 1.49921 ± 0.00063; refractive index ([2]; 343.15 K): 1.49757 ± 0.00063; refractive index ([2]; 348.15 K): 1.49593 ± 0.00063; refractive index ([2]; 353.15 K): 1.49429 ± 0.00063 |
| CCn1cc[n+](C)c1.N#C[C-](C#N)C#N [1-ethyl-3-methyl-1H-imidazolium tricyanomethanide] + CC[n+]1ccn(C)c1.N[C@@H](CO)C(=O)[O-] | 1084.6 ± 15 | 1081 ± 15 | 1077.5 ± 15 | 1073.9 ± 15 | 1070.4 ± 15 | 1067.1 ± 15 | 1063.7 ± 15 | 1060.3 ± 15 | 1056.9 ± 15 | 1053.6 ± 15 | 1050.2 ± 15 | 1046.8 ± 15 | 1043.4 ± 15 | 1.51454 ± 0.00063 | 1.51286 ± 0.00063 | 1.51114 ± 0.00063 | 1.50938 ± 0.00063 | 1.50765 ± 0.00063 | 1.50595 ± 0.00063 | 1.50419 ± 0.00063 | viscosity ([1]; 293.15 K, Stabinger Viscometer): 16.62 ± 0.7 mPa·s; viscosity ([1]; 298.15 K, Stabinger Viscometer): 14.19 ± 0.6 mPa·s; viscosity ([1]; 303.15 K, Stabinger Viscometer): 12.18 ± 0.51 mPa·s; viscosity ([1]; 308.15 K, Stabinger Viscometer): 10.58 ± 0.44 mPa·s; viscosity ([1]; 313.15 K, Stabinger Viscometer): 9.02 ± 0.38 mPa·s; viscosity ([1]; 318.15 K, Stabinger Viscometer): 8.2 ± 0.34 mPa·s; viscosity ([1]; 323.15 K, Stabinger Viscometer): 7.31 ± 0.31 mPa·s; viscosity ([1]; 328.15 K, Stabinger Viscometer): 6.56 ± 0.28 mPa·s; viscosity ([1]; 333.15 K, Stabinger Viscometer): 5.72 ± 0.24 mPa·s; viscosity ([1]; 338.15 K, Stabinger Viscometer): 5.38 ± 0.23 mPa·s; viscosity ([1]; 343.15 K, Stabinger Viscometer): 4.91 ± 0.21 mPa·s; viscosity ([1]; 348.15 K, Stabinger Viscometer): 4.5 ± 0.19 mPa·s; viscosity ([1]; 353.15 K, Stabinger Viscometer): 3.98 ± 0.17 mPa·s; refractive index ([2]; 328.15 K): 1.50255 ± 0.00063; refractive index ([2]; 333.15 K): 1.50087 ± 0.00063; refractive index ([2]; 338.15 K): 1.49921 ± 0.00063; refractive index ([2]; 343.15 K): 1.49757 ± 0.00063; refractive index ([2]; 348.15 K): 1.49593 ± 0.00063; refractive index ([2]; 353.15 K): 1.49429 ± 0.00063 |
| CCn1cc[n+](C)c1.N#C[C-](C#N)C#N [1-ethyl-3-methyl-1H-imidazolium tricyanomethanide] + CCn1cc[n+](C)c1.O=C([O-])[C@@H]1CCCN1 | 1084.6 ± 11 | 1081 ± 11 | 1077.5 ± 11 | 1073.9 ± 11 | 1070.4 ± 11 | 1067.1 ± 11 | 1063.7 ± 11 | 1060.3 ± 11 | 1056.9 ± 11 | 1053.6 ± 11 | 1050.2 ± 10 | 1046.8 ± 10 | 1043.4 ± 10 | 1.51454 ± 0.00063 | 1.51286 ± 0.00063 | 1.51114 ± 0.00063 | 1.50938 ± 0.00063 | 1.50765 ± 0.00063 | 1.50595 ± 0.00063 | 1.50419 ± 0.00063 | viscosity ([1]; 293.15 K, Stabinger Viscometer): 16.62 ± 0.7 mPa·s; viscosity ([1]; 298.15 K, Stabinger Viscometer): 14.19 ± 0.6 mPa·s; viscosity ([1]; 303.15 K, Stabinger Viscometer): 12.18 ± 0.51 mPa·s; viscosity ([1]; 308.15 K, Stabinger Viscometer): 10.58 ± 0.44 mPa·s; viscosity ([1]; 313.15 K, Stabinger Viscometer): 9.02 ± 0.38 mPa·s; viscosity ([1]; 318.15 K, Stabinger Viscometer): 8.2 ± 0.34 mPa·s; viscosity ([1]; 323.15 K, Stabinger Viscometer): 7.31 ± 0.31 mPa·s; viscosity ([1]; 328.15 K, Stabinger Viscometer): 6.56 ± 0.28 mPa·s; viscosity ([1]; 333.15 K, Stabinger Viscometer): 5.72 ± 0.24 mPa·s; viscosity ([1]; 338.15 K, Stabinger Viscometer): 5.38 ± 0.23 mPa·s; viscosity ([1]; 343.15 K, Stabinger Viscometer): 4.91 ± 0.21 mPa·s; viscosity ([1]; 348.15 K, Stabinger Viscometer): 4.5 ± 0.19 mPa·s; viscosity ([1]; 353.15 K, Stabinger Viscometer): 3.98 ± 0.17 mPa·s; refractive index ([2]; 328.15 K): 1.50255 ± 0.00063; refractive index ([2]; 333.15 K): 1.50087 ± 0.00063; refractive index ([2]; 338.15 K): 1.49921 ± 0.00063; refractive index ([2]; 343.15 K): 1.49757 ± 0.00063; refractive index ([2]; 348.15 K): 1.49593 ± 0.00063; refractive index ([2]; 353.15 K): 1.49429 ± 0.00063 |
| CCn1cc[n+](C)c1.N#C[C-](C#N)C#N [1-ethyl-3-methyl-1H-imidazolium tricyanomethanide] + CCn1cc[n+](C)c1.NCC(=O)[O-] | 1084.6 ± 13 | 1081 ± 13 | 1077.5 ± 13 | 1073.9 ± 13 | 1070.4 ± 13 | 1067.1 ± 13 | 1063.7 ± 13 | 1060.3 ± 13 | 1056.9 ± 13 | 1053.6 ± 13 | 1050.2 ± 13 | 1046.8 ± 13 | 1043.4 ± 12 | 1.51454 ± 0.00063 | 1.51286 ± 0.00063 | 1.51114 ± 0.00063 | 1.50938 ± 0.00063 | 1.50765 ± 0.00063 | 1.50595 ± 0.00063 | 1.50419 ± 0.00063 | viscosity ([1]; 293.15 K, Stabinger viscometer): 16.62 ± 0.7 mPa·s; viscosity ([1]; 298.15 K, Stabinger viscometer): 14.19 ± 0.6 mPa·s; viscosity ([1]; 303.15 K, Stabinger viscometer): 12.18 ± 0.51 mPa·s; viscosity ([1]; 308.15 K, Stabinger viscometer): 10.58 ± 0.44 mPa·s; viscosity ([1]; 313.15 K, Stabinger viscometer): 9.02 ± 0.38 mPa·s; viscosity ([1]; 318.15 K, Stabinger viscometer): 8.2 ± 0.34 mPa·s; viscosity ([1]; 323.15 K, Stabinger viscometer): 7.31 ± 0.31 mPa·s; viscosity ([1]; 328.15 K, Stabinger viscometer): 6.56 ± 0.28 mPa·s; viscosity ([1]; 333.15 K, Stabinger viscometer): 5.72 ± 0.24 mPa·s; viscosity ([1]; 338.15 K, Stabinger viscometer): 5.38 ± 0.23 mPa·s; viscosity ([1]; 343.15 K, Stabinger viscometer): 4.91 ± 0.21 mPa·s; viscosity ([1]; 348.15 K, Stabinger viscometer): 4.5 ± 0.19 mPa·s; viscosity ([1]; 353.15 K, Stabinger viscometer): 3.98 ± 0.17 mPa·s; refractive index ([2]; 328.15 K): 1.50255 ± 0.00063; refractive index ([2]; 333.15 K): 1.50087 ± 0.00063; refractive index ([2]; 338.15 K): 1.49921 ± 0.00063; refractive index ([2]; 343.15 K): 1.49757 ± 0.00063; refractive index ([2]; 348.15 K): 1.49593 ± 0.00063; refractive index ([2]; 353.15 K): 1.49429 ± 0.00063 |
